# Source: US11058690B2, “Use of cytochrome bc1 complex inhibitor in preparing pharmaceutical composition” (BEIJING WEILANZHIYUAN MEDICAL TECHNOLOGY CO., LTD., priority 2017, dated 2021)
# Read-outs that look alike come from different tables or passages of the source.
# Tests used:
# [1] = tested on: Kunming male mice; assay: acetic acid writhing test on mice; format: in vivo, mouse; details: for Writhe starting time / Number of writhing times: Table 3; for Number of writhing times: within 30 min
# [2] = tested on: Kunming female mice; assay: PGF2α-induced dysmenorrhea model in mice (diethylstilbestrol sensitization); format: in vivo, mouse; details: for Number of writhing times: within 30 min
# Procedure: A mouse dysmenorrhea model was established with reference to Yang L., Cao Z., Yu B. & Chai C. An in vivo mouse model of primary dysmenorrhea. Exp Anim. 2015, August 64, 295-303. Adult healthy Kunming female mice were randomly grouped, 10 mice in each group. Experimental mice were intragastrically given diethylstilbestrol 0.2 mg daily for 12 days. Different kinds and dosages of the inhibitors of the cytochrome bc1 complex were given intraperitoneally or intragastrically 30 min after the last administration. Indometacin (50 mg/kg) was injected intraperitoneally as positive control, PGF2α (1.3 mg/kg) or oxytocin (20 U/kg) was injected intraperitoneally 1 h later, and the writhe starting time (reaction latency) and the number of writhing times within 30 min were observed and recorded.
# [3] = tested on: rat uterine smooth muscle; assay: contraction of isolated rat uterine smooth muscle strips induced by PGF2α; format: cell-based; details: PGF2α (450 nM); for IC50: area under the contraction curve 10 minutes after drug, read-out: IC50, inhibition of uterine smooth muscle contraction
# Procedure: Female healthy Wistar rats weighing 230-270 g were used in the experiment. At 2 days before the experiment, Diethylstilbestrol suspension was injected intraperitoneally once at 0.1 mg/kg, resulting in artificial estrus. The rats were sacrificed by cervical dislocation, and the uterus was removed by laparotomy and immediately placed in a glass plate containing Tyrode's solution. Connective and adipose tissues attached to the uterine wall were carefully peeled off, the uterus was cut open along the mesangial line and laid flat on the bottom of the glass plate, then one side of the uterus was divided into left and right uterine muscle strips by using a surgical blade along the uterine contraction band running along smooth muscle, the two ends of the uterine muscle strip on one side were ligated with wires respectively, and then transferred into a nutrient tube which was aerated with oxygen and filled with 5 ml of Tyrode's solution and preheated to 37.2±0.5° C., with a lower end fixed and an upper end connected with a tension sensor. The materials stood for 20-30 minutes, liquid was changed 2-3 times, then the uterus was given a load of 1 g and kept for 30-60 minutes until the uterus had regular contraction waves, 40 mM KCL solution was provided for 10 minutes, and the function of the uterine muscle strips was evaluated. Then the muscle strips were relaxed and washed 2-3 times with Tyrode's solution, then let stand for 30 minutes; after standing, the uterine muscle strips were given a load of 1 g and kept for 30-60 minutes, and the administration and the observation were carried out after the uterine muscle strips contracted stably (i.e. regular contraction waveforms appear in a microcomputer display screen), the changes of relevant data such as contraction tension, amplitude and area under the contraction curve of the uterine smooth muscle strips were recorded, and the drug given was evaluated. During the experiment, the working temperature of the Tyrode's solution was kept at 37.2±0.5° C., and oxygen was continuously aerated into the nutrient tube with 1-2 bubbles per second. A cumulative dosing method was adopted, and 5 μl was administered each time, from low concentration to high concentration. A final drug concentration refers to the concentration of the drug dissolved in 5 ml Tyrode's solution in a […] tube.
# Fluacrypyrim (FAPM), the first strobilurin acaricide developed by BASF SE and Nippon Soda Co., Ltd., is a Qo site inhibitor of the mitochondrial cytochrome bc1 complex. […] The area under the smooth muscle contraction curve was calculated before drug intervention and 10 minutes after different doses of drug intervention respectively. A drug dose-effect curve was plotted by taking the area under the smooth muscle contraction curve caused by PGF2α as 100%, to calculate the median effective dose (IC50 value) of the drug for inhibiting uterine smooth muscle contraction.
# [4] = tested on: Mouse mononuclear macrophage RAW 264.7; assay: nitric oxide production by LPS-stimulated macrophages (Griess assay); format: cell-based; details: LPS 1 μg/mL, 24 h
# [5] = Table 7, 100 mg/Kg intraperitoneal
# [6] = Table 7, 200 mg/Kg intraperitoneal
structure (smiles),measurement,setting,value
"CO/C=C(/C(=O)OC)c1ccccc1COc1cc(C(F)(F)F)nc(OC(C)C)n1 [FAPM, fluacrypyrim]",curative effect compared with indomethacin,[1]; 100 mg/Kg versus indomethacin 50 mg/Kg,equivalent to indomethacin at 50 mg/Kg
same,writhe starting time (reaction latency) compared with control group,"[1]; FAPM and trifloxystrobin intraperitoneal, azoxystrobin intragastric",significantly prolonged
same,Writhe starting time,[1]; 50 mg/Kg intraperitoneal,3.4 ± 1.1 min
same,Number of writhing times,"[1]; 50 mg/Kg intraperitoneal, 1 hour before acetic acid",25.3 ± 4.7
same,Writhe starting time,[1]; 100 mg/Kg intraperitoneal,4.6 ± 1.5 min
same,Number of writhing times,[1]; 100 mg/Kg intraperitoneal,17.6 ± 3.5
same,Writhe starting time,[1]; 200 mg/Kg intraperitoneal,11.9 ± 2.6 min
same,Number of writhing times,[1]; 200 mg/Kg intraperitoneal,2.4 ± 2.2
same,curative effect compared with indomethacin,[2]; 50 mg/Kg versus indomethacin 50 mg/Kg,equivalent to indomethacin at 50 mg/Kg
same,Writhe starting time,[2]; 200 mg/Kg intraperitoneal,significantly prolonged
same,effect on number of writhing times,"[2]; FAPM intraperitoneal, azoxystrobin intragastric, 50, 100 and 200 mg/Kg one hour before",in a dose-dependent manner
same,Writhe starting time,"[2]; Table 7, 50 mg/Kg intraperitoneal",1.24 ± 0.66 min
same,Number of writhing times,"[2]; Table 7, 50 mg/Kg intraperitoneal, 1 h before PGF2α (1.3 mg/kg)",18.3 ± 3.3
same,Writhe starting time,[2]; [5],1.43 ± 0.73 min
same,Number of writhing times,[2]; [5],12.5 ± 1.7
same,Writhe starting time,[2]; [6],2.15 ± 0.34 min
same,Number of writhing times,[2]; [6],5.8 ± 1.2
same,inhibitory effect on PGF2α-induced contraction,[3]; amplitude and frequency,in a dose-dependent manner
same,IC50,[3],1690 ± 160 nM
same,IC50,"[3]; Rattus norvegicus, 10 min",1840 ± 80 nM
same,Maximum inhibition rate,[4]; in %,80%
same,IC50,"[4]; Mus musculus, RAW264.7, read-out: IC50, NO production",3800 nM
